17 compounds from ChEMBL document CHEMBL3232825 (J Med Chem, 2014) can be followed below.

In brackets after ≈: the same amount, converted by molar mass.

Data set [1] has as its target Endoplasmin (Homo sapiens, UniProt P14625).
Data set [2] deals with T1, Heat shock protein 75 kDa, mitochondrial (Homo sapiens, UniProt Q12931).
T1 sequence (Q12931 whole entry): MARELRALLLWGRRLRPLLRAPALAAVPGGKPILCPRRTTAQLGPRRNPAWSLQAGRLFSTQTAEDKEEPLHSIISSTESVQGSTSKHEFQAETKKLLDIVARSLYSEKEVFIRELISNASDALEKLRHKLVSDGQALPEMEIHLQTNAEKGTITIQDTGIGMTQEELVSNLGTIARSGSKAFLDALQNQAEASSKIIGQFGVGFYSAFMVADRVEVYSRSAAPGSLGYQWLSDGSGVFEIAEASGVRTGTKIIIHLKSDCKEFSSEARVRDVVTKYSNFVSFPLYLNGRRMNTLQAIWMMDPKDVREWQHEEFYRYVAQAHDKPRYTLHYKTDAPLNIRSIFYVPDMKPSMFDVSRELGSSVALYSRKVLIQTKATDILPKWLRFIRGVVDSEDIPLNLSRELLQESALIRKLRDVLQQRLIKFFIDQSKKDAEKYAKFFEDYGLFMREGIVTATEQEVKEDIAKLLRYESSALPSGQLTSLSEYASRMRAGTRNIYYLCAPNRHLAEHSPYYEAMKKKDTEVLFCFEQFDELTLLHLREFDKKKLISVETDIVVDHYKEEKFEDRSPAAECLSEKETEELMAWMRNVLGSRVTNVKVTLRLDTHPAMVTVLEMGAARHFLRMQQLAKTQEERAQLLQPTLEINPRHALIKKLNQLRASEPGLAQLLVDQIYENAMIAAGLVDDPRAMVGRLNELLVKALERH

Data set [3] has as its target T2, Heat shock protein HSP 90-beta (Homo sapiens, UniProt P08238).
Data set [4] in a line: Aqueous solubility of the compound at pH 7.4. The data set is classed as physicochemical.
Data set [5] concerns the target T2, Heat shock protein HSP 90-beta. The source holds these as a separate data set.
A short description of data set [6]: in vivo. The settings on record: Sprague-Dawley, rat, plasma, sc, 10 mg/kg.
A short description of data set [7]: in vivo. The note with it: Sprague-Dawley, rat, iv, 1 mg/kg.
Data set [8] in a line: in vivo. The note with it: Sprague-Dawley, rat, brain and plasma, sc, 10 mg/kg.
Data set [9] in a line: in vivo. The settings on record: Sprague-Dawley, rat, iv, 1 mg/kg. The source holds these as a separate data set.
The nature of data set [10]: in vivo. The settings on record: Sprague-Dawley, rat, iv, 1 mg/kg. This is another data set of the same source.
A short description of data set [11]: in vivo. The settings on record: Sprague-Dawley, rat, plasma, iv, 1 mg/kg.
The nature of data set [12]: in vivo. The settings on record: Sprague-Dawley, rat, sc, 10 mg/kg.

Endoplasmin, sequence (P14625 whole entry): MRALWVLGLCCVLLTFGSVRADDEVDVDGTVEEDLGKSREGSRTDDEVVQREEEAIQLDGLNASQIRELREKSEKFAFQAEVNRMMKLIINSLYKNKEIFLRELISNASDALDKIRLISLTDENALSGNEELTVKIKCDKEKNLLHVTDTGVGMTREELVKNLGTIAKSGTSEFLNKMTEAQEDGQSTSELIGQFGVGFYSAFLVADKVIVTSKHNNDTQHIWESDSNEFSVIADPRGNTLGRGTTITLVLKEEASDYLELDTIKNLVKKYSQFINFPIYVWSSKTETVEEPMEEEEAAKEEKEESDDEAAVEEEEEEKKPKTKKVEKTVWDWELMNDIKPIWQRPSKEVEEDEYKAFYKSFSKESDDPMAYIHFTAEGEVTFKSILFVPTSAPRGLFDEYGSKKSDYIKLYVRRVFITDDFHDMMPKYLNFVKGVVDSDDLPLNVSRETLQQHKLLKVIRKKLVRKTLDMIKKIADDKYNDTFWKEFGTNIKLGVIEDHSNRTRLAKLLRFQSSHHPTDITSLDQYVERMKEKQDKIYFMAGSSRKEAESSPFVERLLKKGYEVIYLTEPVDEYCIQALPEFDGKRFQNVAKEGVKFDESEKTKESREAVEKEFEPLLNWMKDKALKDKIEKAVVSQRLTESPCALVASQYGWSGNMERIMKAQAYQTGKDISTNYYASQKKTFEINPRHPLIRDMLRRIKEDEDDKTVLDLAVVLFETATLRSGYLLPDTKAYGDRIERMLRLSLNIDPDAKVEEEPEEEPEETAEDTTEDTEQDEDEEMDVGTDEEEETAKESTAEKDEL
T2 sequence (P08238 whole entry): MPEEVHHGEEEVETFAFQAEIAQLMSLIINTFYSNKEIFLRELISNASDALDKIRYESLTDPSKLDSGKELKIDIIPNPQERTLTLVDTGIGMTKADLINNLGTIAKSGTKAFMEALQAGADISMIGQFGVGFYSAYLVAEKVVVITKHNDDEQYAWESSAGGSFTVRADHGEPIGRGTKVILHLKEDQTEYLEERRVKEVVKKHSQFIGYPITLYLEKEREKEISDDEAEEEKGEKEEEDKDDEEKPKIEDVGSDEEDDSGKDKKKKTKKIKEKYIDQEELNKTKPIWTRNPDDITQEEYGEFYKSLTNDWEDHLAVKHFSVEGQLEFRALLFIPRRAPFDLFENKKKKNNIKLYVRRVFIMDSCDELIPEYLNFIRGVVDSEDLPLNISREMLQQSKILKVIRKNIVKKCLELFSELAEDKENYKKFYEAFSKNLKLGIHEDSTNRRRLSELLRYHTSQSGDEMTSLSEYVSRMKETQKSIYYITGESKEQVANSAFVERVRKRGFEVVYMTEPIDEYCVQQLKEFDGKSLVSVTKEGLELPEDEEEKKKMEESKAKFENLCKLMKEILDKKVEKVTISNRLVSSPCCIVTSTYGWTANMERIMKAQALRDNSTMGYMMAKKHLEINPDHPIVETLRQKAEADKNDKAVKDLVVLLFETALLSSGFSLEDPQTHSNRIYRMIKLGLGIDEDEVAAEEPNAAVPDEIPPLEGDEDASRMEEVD

By Ki is commonly meant a measure of affinity in units of concentration, obtained from inhibition or displacement. As for `CC1(C)CC(=O)c2c(n(-c3ccc(C(N)=O)cc3)c3cccnc23)C1`, the Ki in [1], in data set [2] and in data set [3] was over 10000 nM in each case.
Take `CC1(C)CC(=O)c2c(n(-c3ccc(C(N)=O)cc3)c3cnccc23)C1`: the Ki in [1], in data set [2] and in [3] was over 10000 nM throughout.
By solubility is commonly meant how much of the substance goes into solution per volume. Read a low solubility as a poorly soluble substance. `CN1CCc2c3c(n(-c4ccc(C(N)=O)c(N[C@H]5CCOC5)c4)c2C1)CC(C)(C)CC3=O` came in with a solubility in data set [4] of over 200 µM.
Usually IC50 stands for the point on the concentration scale where inhibition reaches its midpoint. A low value points to inhibition by little substance. As to `CN1CCc2c3c(n(-c4ccc5c(c4)CNC5=O)c2C1)CC(C)(C)CC3=O`, the Ki in [1], in data set [2] and in [3] was over 10000 nM throughout. In addition, the IC50 in data set [5] was over 10000 nM.
Take `CN1CCc2c3c(n(-c4ccc5c(c4)CCCNC5=O)c2C1)CC(C)(C)CC3=O`: the Ki in [1], in [2] and in data set [3] was over 10000 nM each time. This compound also gave an IC50 in [5] of over 10000 nM.
Regarding `CC1(C)CC(=O)c2c3c(n(-c4ccc(C(N)=O)c(N[C@H]5CCOC5)c4)c2C1)CCCC3`, the concentration in solution in data set [4] (solubility) came to 27 µM (≈ 11.4 µg/mL). In data set [3], the affinity corresponds to a Ki of 40 nM. This compound also showed an IC50 in data set [5] of 530 nM.
Usually AUC stands for concentration integrated over time. Usually clearance stands for a measure of how efficiently the substance is removed, as volume per time. A higher clearance goes with a high capacity for elimination. Usually Kp stands for the ratio of the level in a tissue or fluid to that in plasma or blood. The half-life is the time in which the quantity being followed falls by half. A higher half-life goes with slow decline. One may read the Vd as a proportionality between amount in the body and measured concentration, not a real space. In the case of `Cc1cn(-c2cc3c(c(CC(C)C)c2)C(=O)NCC3)c2c1C(=O)CC(C)(C)C2`, the values for the AUC in data set [6] and in [11] were 3580 ng·h/mL and 640 ng·h/mL, respectively. Moreover, the Ki in data set [1] and in [2] was over 10000 nM in each case. In [7], this compound had a clearance of 25.7 mL/min/kg. Besides, the Kp at 2 h in data set [8] turned out to be 0.5. Besides, the half-life in data set [9] is 2.2 h; in data set [12], 11.6 h. In [10], this compound registered a Vd of 4.08 L/kg.
Regarding `Cc1cn(-c2cc3c(c(C4CCCCC4)c2)C(=O)NCC3)c2c1C(=O)CC(C)(C)C2`, the inhibition constant Ki is over 10000 nM in [1], over 10000 nM in [2] and 5 nM in data set [3]. In data set [5], this compound had an IC50 of 36 nM.
As to `Cc1cn(-c2cc3c(c(C4CCOCC4)c2)C(=O)NCC3)c2c1C(=O)CC(C)(C)C2`, the Ki in data set [1] is 2400 nM; in [2], over 10000 nM; in [3], 3 nM. In data set [5], this compound gave an IC50 of 19 nM.
As for `Cc1cn(-c2cc3c(c(C4CCC4)c2)C(=O)NCC3)c2c1C(=O)CC(C)(C)C2`, the Ki in data set [1] was over 10000 nM; in data set [2], over 10000 nM; in data set [3], 39 nM. In data set [5], this compound showed an IC50 of 195 nM.
In the case of `CCCCc1cc(-n2cc(C)c3c2CC(C)(C)CC3=O)cc2c1C(=O)NCC2`, the Ki was over 10000 nM in data set [1], over 10000 nM in data set [2] and 56 nM in data set [3]. For the same compound, the IC50 in [5] was found to be 1000 nM.
Consider `Cc1cn(-c2cc3c(c(C(C)(C)C)c2)C(=O)NCC3)c2c1C(=O)CC(C)(C)C2`, for which the inhibition constant (Ki) is over 10000 nM in data set [1], over 10000 nM in data set [2] and 140 nM in data set [3]. The IC50 in data set [5] turned out to be 1700 nM.
As to `Cc1cn(-c2cc3c(c(Cc4ccccc4)c2)C(=O)NCC3)c2c1C(=O)CC(C)(C)C2`, the Ki in data set [1] is over 10000 nM; in [2] it was over 10000 nM; in data set [3] it was 120 nM. The compound further returned an IC50 in [5] of 480 nM.
Take `Cc1cn(-c2cc3c(c(-c4ccccc4)c2)C(=O)NCC3)c2c1C(=O)CC(C)(C)C2`: the Ki was over 10000 nM in data set [1], over 10000 nM in data set [2] and 15 nM in [3]. The compound further yielded an IC50 in data set [5] of 230 nM.
Turning to `Cc1cn(-c2cc3c(c(-c4ccc(F)cc4)c2)C(=O)NCC3)c2c1C(=O)CC(C)(C)C2`, the results for the Ki in data set [1], in [2] and in data set [3] were over 10000 nM, over 10000 nM and 10 nM, respectively. Also, in [5], 80 nM corresponded to half-maximal inhibition (IC50).
Consider `Cc1cn(-c2cc3c(c(-c4cccc(F)c4)c2)C(=O)NCC3)c2c1C(=O)CC(C)(C)C2`, for which the Ki was over 10000 nM in data set [1], over 10000 nM in data set [2] and 20 nM in data set [3]. Besides, in data set [5], the midpoint of inhibition, the IC50, lay at 81 nM.
Consider `COc1ccc(-c2cc(-n3cc(C)c4c3CC(C)(C)CC4=O)cc3c2C(=O)NCC3)cc1`, for which the Ki is over 10000 nM in data set [1], over 10000 nM in data set [2] and 40 nM in [3]. This compound returned an IC50 in [5] of 280 nM.
